The values that follow come from patent publication US8563542B2 (Cyclacel Limited, priority 2007, dated 2013).

The assay deals with PLK1 (Homo sapiens, UniProt P53350). In words: PLK1 protein kinase assay (CDC25C phosphorylation, [γ-32P]-ATP). Type of assay: biochemical. The note with it: Table 2, PLK1 IC50; class symbols; read-out: PLK1 IC50.
Sequence of PLK1 (P53350 whole entry): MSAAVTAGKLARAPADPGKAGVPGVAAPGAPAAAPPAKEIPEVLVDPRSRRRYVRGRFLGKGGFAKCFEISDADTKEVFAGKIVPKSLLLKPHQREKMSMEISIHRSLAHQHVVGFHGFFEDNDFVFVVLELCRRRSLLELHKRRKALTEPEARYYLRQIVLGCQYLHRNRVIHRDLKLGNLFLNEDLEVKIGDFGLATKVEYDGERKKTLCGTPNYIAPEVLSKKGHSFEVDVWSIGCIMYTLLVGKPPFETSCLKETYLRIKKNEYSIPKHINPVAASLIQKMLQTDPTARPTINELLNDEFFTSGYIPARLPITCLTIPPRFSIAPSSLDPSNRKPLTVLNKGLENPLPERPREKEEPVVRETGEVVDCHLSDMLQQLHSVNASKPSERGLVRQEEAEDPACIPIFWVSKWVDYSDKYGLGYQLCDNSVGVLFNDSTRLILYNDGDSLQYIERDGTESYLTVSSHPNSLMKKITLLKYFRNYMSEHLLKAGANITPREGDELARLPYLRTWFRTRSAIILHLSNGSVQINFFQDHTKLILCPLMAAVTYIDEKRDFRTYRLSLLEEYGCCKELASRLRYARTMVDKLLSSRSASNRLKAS
Broadly, the IC50 is the midpoint of a concentration-inhibition curve. For `COc1cc(C(=O)NC2CN3CCC2CC3)ccc1Nc1ncc2c(n1)N(c1ccccc1C)CCC(=O)N2C` (stereo not drawn) [compound 311, N-(1-Aza-bicyclo[2.2.2]oct-3-yl)-3-methoxy-4-(5-methyl-6-oxo-9-o-tolyl-6,7,8,9-tetrahydro-5H-pyrimido[4,5-b][1,4]diazepin-2-ylamino)-benzamide], the IC50 is below 1 µM.

With `COc1cc(C(=O)NC2CC(C)(C)N(C)C(C)(C)C2)ccc1Nc1ncc2c(n1)N(c1ccccc1C)CCC(=O)N2C` [compound 312, 3-Methoxy-4-(5-methyl-6-oxo-9-o-tolyl-6,7,8,9-tetrahydro-5H-pyrimido[4,5-b][1,4]diazepin-2-ylamino)-N-(1,2,2,6,6-pentamethyl-piperidin-4-yl)-benzamide], the IC50 is below 10 µM.

On to `CCN(CC)CCNC(=O)c1ccc(Nc2ncc3c(n2)N(c2ccccc2C)CCC(=O)N3C)c(OC)c1` [compound 313, N-(2-Diethylamino-ethyl)-3-methoxy-4-(5-methyl-6-oxo-9-o-tolyl-6,7,8,9-tetrahydro-5H-pyrimido[4,5-b][1,4]diazepin-2-ylamino)-benzamide], for which the IC50 was below 10 µM.

Take `COc1ccc(N2CCC(=O)N(C)c3cnc(Nc4ccc(C(=O)NC5CCN(C)CC5)cc4OC)nc32)cc1` [compound 314]: the IC50 was below 1 µM.

For the molecule `COc1ccc(N2CCC(=O)N(C)c3cnc(Nc4ccc(C(=O)NC5CCCN(C)C5)cc4OC)nc32)cc1` (stereo not drawn) [compound 315], the IC50 was below 1 µM.

As for `COc1ccc(N2CCC(=O)N(C)c3cnc(Nc4ccc(C(=O)NC5CCN(Cc6ccccc6)CC5)cc4OC)nc32)cc1` [compound 316, N-(1-Benzyl-piperidin-4-yl)-3-methoxy-4-[9-(4-methoxy-phenyl)-5-methyl-6-oxo-6,7,8,9-tetrahydro-5H-pyrimido[4,5-b][1,4]diazepin-2-ylamino]-benzamide], the IC50 is below 1 µM.

Take `COc1ccc(N2CCC(=O)N(C)c3cnc(Nc4ccc(C(=O)NC5CN6CCC5CC6)cc4OC)nc32)cc1` (stereo not drawn) [compound 317, N-(1-Aza-bicyclo[2.2.2]oct-3-yl)-3-methoxy-4-[9-(4-methoxy-phenyl)-5-methyl-6-oxo-6,7,8,9-tetrahydro-5H-pyrimido[4,5-b][1,4]diazepin-2-ylamino]-benzamide]: the IC50 was below 1 µM.

On to `COc1ccc(N2CCC(=O)N(C)c3cnc(Nc4ccc(C(=O)NC5CC(C)(C)N(C)C(C)(C)C5)cc4OC)nc32)cc1` [compound 318], for which the IC50 is below 1 µM.

With `CCN(CC)CCNC(=O)c1ccc(Nc2ncc3c(n2)N(c2ccc(OC)cc2)CCC(=O)N3C)c(OC)c1` [compound 319, N-(2-Diethylamino-ethyl)-3-methoxy-4-[9-(4-methoxy-phenyl)-5-methyl-6-oxo-6,7,8,9-tetrahydro-5H-pyrimido[4,5-b][1,4]diazepin-2-ylamino]-benzamide], the concentration for half-maximal inhibition (IC50) was below 10 µM.

With `COc1cc(C(=O)NCC(=O)N2CCN(C(C)C)CC2)ccc1Nc1ncc2c(n1)N(C1CCCC1)CC1(CC1)C(=O)N2C` [compound 321], the IC50 was below 1 µM.

On to `COc1cc(C(=O)NC2CCN(Cc3ccccc3)C2)ccc1Nc1ncc2c(n1)N(C1CCCC1)CC1(CC1)C(=O)N2C` (stereo not drawn) [compound 322, N-(Benzyl-pyrrolidin-3-yl)-4-(9-cyclopentyl-5-methyl-6-oxo-6,7,8,9-tetrahydro-5H-spiro[pyrimido[4,5-b][1,4]diazepin-3,1′-cyclopropane]-2-ylamino)-3-methoxy-N-benzamide], for which the 50% inhibitory concentration (IC50) was below 0.1 µM.

On to `CN1CCC(NC(=O)c2ccc(Nc3ncc4c(n3)N(C3CCCC3)CC3(CC3)C(=O)N4C)c(F)c2)CC1` [compound 323, 4-(9-Cyclopentyl-5-methyl-6-oxo-6,7,8,9-tetrahydro-5H-spiro[pyrimido[4,5-b][1,4]diazepin-3,1′-cyclopropane]-2-ylamino)-3-fluoro-N-(1-methyl-piperidin-4-yl)-benzamide], for which the concentration for half-maximal inhibition (IC50) was below 0.1 µM.
